Experiments:
Assay in all cases: radiometric filter-binding kinase assay, Kinase HotSpot
Conditions in all cases: compound 0.5 µM; ATP 10 µM
FLT3 (human) = FLT3 (human) (UniProt P36888)
NEK2 (human) = NEK2 (human) (UniProt P51955)
CLK1 (human) = CLK1 (human) (UniProt P49759)
DYRK3 (human) = DYRK3 (human) (UniProt O43781)
DYRK1B (human) = DYRK1B (human) (UniProt Q9Y463)
EPHB3 (human) = EPHB3 (human) (UniProt P54753)
RPS6KA4 KD2 (human) = RPS6KA4 KD2 (human) (UniProt O75676)
HCK (human) = HCK (human) (UniProt P08631)
GSG2 (human) = GSG2 (human) (UniProt Q8TF76)
TYRO3 (human) = TYRO3 (human) (UniProt Q06418)
ACVR1B (human) = ACVR1B (human) (UniProt P36896)
MAP2K2 (human) = MAP2K2 (human) (UniProt P36507)
CHEK2 (human) = CHEK2 (human) (UniProt O96017)
RPS6KA6 KD1 KD2 (human) = RPS6KA6 KD1 KD2 (human) (UniProt Q9UK32)
PLK3 (human) = PLK3 (human) (UniProt Q9H4B4)
CSNK1G2 (human) = CSNK1G2 (human) (UniProt P78368)
NEK6 (human) = NEK6 (human) (UniProt Q9HC98)
VRK1 (human) = VRK1 (human) (UniProt Q99986)
CDK6 CCND3 (human) = CDK6 CCND3 (human) (UniProt P30281+Q00534)
MAP3K14 (human) = MAP3K14 (human) (UniProt Q99558)
SRPK2 (human) = SRPK2 (human) (UniProt P78362)
RET (human) = RET (human) (UniProt P07949)
FRK (human) = FRK (human) (UniProt P42685)
CSNK1A1 (human) = CSNK1A1 (human) (UniProt P48729)
CDK5 CDK5R1 p35 (human) = CDK5 CDK5R1 p35 (human) (UniProt Q00535+Q15078)
FGFR1 (human) = FGFR1 (human) (UniProt P11362)
MAP2K1 (human) = MAP2K1 (human) (UniProt Q02750)
MERTK (human) = MERTK (human) (UniProt Q12866)
SRMS (human) = SRMS (human) (UniProt Q9H3Y6)
BRSK1 (human) = BRSK1 (human) (UniProt Q8TDC3)
CAMK2D (human) = CAMK2D (human) (UniProt Q13557)
TEC (human) = TEC (human) (UniProt P42680)
SRPK1 (human) = SRPK1 (human) (UniProt Q96SB4)
RAF1 (human) = RAF1 (human) (UniProt P04049)
DYRK2 (human) = DYRK2 (human) (UniProt Q92630)
RPS6KB1 (human) = RPS6KB1 (human) (UniProt P23443)
EPHA2 (human) = EPHA2 (human) (UniProt P29317)
BRSK2 (human) = BRSK2 (human) (UniProt Q8IWQ3)
DYRK1A (human) = DYRK1A (human) (UniProt Q13627)
CSF1R (human) = CSF1R (human) (UniProt P07333)
TGFBR2 (human) = TGFBR2 (human) (UniProt P37173)
PRKD2 (human) = PRKD2 (human) (UniProt Q9BZL6)

CSNK1A1 (human), sequence (P48729 whole entry, looked up): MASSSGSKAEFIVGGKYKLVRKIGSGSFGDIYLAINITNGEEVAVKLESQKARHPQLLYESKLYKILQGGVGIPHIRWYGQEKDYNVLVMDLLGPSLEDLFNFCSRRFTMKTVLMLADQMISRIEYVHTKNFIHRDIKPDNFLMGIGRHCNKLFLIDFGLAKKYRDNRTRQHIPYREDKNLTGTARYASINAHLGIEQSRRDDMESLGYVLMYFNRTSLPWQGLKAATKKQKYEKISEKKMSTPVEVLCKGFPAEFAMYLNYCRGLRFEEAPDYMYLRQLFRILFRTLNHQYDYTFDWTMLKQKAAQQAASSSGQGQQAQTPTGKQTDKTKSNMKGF
MAP2K2 (human), sequence (P36507 whole entry, looked up): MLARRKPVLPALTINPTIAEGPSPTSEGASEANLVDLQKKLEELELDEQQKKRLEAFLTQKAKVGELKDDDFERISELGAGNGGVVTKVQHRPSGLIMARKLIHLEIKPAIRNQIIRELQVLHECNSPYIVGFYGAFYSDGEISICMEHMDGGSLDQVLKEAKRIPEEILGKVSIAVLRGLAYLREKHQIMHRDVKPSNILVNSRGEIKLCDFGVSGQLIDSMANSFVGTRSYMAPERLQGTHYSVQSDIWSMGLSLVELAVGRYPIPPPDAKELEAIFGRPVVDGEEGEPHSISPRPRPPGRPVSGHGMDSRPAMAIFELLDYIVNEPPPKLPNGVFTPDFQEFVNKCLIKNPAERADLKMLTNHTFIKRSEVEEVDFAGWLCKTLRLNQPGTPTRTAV
SRMS (human), sequence (Q9H3Y6 whole entry, looked up): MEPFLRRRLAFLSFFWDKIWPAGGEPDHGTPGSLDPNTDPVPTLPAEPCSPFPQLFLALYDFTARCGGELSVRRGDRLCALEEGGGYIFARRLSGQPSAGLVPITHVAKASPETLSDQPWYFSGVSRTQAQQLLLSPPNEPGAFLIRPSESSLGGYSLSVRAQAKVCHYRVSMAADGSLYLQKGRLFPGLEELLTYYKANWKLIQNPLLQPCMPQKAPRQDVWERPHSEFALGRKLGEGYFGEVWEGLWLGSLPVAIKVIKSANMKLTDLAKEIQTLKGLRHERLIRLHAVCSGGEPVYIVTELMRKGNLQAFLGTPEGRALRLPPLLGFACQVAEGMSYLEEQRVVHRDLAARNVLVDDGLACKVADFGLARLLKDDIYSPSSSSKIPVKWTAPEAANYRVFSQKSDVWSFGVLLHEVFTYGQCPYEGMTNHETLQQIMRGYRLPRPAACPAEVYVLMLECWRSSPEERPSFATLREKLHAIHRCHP
RET (human), sequence (P07949 whole entry, looked up): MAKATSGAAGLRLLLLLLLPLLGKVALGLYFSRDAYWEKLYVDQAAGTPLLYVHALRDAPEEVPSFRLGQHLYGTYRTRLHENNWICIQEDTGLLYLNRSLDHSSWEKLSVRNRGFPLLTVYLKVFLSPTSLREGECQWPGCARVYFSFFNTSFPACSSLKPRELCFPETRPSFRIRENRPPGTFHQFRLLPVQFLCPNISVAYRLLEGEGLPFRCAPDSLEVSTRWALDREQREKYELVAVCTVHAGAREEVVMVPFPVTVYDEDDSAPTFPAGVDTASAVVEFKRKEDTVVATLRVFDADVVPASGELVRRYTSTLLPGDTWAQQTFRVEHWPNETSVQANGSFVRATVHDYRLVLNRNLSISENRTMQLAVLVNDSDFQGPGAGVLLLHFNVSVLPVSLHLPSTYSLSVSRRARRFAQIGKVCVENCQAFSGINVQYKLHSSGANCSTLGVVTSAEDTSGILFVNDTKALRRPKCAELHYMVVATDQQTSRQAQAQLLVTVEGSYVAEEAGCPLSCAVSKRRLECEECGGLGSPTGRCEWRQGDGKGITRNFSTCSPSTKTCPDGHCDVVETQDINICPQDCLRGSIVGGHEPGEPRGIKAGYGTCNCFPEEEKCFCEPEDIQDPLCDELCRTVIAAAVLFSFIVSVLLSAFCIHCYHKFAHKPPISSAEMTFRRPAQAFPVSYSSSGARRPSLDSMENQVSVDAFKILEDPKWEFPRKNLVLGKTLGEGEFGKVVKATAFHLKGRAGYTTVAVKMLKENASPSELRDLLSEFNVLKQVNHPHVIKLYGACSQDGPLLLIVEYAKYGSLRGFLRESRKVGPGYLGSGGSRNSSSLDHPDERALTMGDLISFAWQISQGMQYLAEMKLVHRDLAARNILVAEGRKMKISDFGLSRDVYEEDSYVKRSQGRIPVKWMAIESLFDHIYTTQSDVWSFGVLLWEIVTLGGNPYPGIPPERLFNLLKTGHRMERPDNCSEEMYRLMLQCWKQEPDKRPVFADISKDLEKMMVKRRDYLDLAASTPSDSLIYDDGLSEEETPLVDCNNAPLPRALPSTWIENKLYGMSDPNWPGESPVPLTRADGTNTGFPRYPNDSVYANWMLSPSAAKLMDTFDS
MERTK (human), sequence (Q12866 whole entry, looked up): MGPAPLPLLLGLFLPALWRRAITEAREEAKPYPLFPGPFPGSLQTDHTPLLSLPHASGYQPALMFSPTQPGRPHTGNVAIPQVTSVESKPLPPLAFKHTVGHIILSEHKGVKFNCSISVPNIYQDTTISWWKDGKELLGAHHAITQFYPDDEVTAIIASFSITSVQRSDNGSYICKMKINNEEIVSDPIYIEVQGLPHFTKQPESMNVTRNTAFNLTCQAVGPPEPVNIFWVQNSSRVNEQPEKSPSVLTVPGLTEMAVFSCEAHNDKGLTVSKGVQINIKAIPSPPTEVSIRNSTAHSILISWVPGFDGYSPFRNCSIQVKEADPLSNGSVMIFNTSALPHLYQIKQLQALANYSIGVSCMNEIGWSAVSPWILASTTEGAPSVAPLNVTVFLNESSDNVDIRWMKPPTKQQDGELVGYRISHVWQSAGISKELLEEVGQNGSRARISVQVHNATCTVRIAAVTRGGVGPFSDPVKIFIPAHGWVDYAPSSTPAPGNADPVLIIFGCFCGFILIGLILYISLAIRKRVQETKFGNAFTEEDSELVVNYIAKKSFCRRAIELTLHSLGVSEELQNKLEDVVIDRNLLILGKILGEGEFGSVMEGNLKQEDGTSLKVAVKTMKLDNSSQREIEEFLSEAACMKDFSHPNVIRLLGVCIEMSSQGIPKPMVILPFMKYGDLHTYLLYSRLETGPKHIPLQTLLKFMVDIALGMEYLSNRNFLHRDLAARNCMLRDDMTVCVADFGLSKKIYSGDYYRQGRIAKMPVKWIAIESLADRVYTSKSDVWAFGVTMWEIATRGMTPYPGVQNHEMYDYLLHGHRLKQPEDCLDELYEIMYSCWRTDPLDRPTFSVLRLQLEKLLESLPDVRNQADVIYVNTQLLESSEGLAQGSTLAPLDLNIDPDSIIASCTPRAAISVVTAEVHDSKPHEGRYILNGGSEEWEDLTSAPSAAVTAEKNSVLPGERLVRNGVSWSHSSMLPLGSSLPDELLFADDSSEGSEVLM
FRK (human), sequence (P42685 whole entry, looked up): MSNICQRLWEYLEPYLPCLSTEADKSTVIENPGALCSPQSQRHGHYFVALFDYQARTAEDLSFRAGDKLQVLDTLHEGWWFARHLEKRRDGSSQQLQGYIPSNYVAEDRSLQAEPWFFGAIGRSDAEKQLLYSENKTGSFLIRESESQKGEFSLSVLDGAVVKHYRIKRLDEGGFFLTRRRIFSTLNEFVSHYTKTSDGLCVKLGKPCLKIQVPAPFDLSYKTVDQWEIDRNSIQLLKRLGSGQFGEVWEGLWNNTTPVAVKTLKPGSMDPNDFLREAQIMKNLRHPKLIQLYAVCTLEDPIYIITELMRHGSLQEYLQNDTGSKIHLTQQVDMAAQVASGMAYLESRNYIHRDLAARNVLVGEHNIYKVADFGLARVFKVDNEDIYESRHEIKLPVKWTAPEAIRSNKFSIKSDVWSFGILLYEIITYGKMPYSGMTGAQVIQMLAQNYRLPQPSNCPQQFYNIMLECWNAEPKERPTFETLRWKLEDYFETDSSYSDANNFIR
CLK1 (human), sequence (P49759 whole entry, looked up): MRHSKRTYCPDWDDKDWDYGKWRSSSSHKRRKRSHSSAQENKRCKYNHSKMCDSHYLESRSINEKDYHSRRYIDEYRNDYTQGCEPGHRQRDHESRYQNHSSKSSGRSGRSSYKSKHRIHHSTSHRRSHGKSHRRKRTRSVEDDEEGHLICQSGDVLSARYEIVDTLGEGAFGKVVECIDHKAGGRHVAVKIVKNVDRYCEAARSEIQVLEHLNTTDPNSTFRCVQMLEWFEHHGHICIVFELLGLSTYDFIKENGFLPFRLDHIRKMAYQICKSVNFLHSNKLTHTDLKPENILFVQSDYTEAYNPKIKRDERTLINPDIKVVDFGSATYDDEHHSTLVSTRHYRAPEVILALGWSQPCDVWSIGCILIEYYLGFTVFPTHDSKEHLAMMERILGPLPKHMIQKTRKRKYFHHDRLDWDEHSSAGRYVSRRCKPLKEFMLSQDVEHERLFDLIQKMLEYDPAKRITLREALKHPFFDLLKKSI
MAP2K1 (human), sequence (Q02750 whole entry, looked up): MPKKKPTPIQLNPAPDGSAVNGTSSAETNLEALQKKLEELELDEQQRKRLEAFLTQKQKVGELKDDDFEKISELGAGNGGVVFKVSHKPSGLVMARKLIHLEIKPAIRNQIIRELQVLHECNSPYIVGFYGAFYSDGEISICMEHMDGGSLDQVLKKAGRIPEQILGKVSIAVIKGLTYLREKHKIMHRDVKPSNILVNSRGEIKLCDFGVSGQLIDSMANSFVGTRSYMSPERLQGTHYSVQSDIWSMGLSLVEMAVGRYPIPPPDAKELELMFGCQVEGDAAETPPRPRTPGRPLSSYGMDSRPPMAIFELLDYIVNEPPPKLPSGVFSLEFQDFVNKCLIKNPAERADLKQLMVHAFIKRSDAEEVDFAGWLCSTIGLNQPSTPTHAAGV

Molecule `COc1cc2ncnc(Nc3ccc(F)c(Cl)c3)c2cc1OCCCN1CCOCC1` has a residual activity (FLT3 (human)) of 56.5%, a residual activity (NEK2 (human)) of 98.4% and a residual activity (CLK1 (human)) of 105%. It also gave a residual activity (DYRK3 (human)) of 85%, a residual activity (DYRK1B (human)) of 91.9% and a residual activity (EPHB3 (human)) of 57.5%. The residual activity (RPS6KA4 KD2 (human)) was 104%, the residual activity (HCK (human)) was 73.3% and the residual activity (GSG2 (human)) was 84%. The residual activity (TYRO3 (human)) was 94.9%, the residual activity (ACVR1B (human)) was 99.6% and the residual activity (MAP2K2 (human)) was 102%. It also gave a residual activity (CHEK2 (human)) of 84%, a residual activity (RPS6KA6 KD1 KD2 (human)) of 95.2% and a residual activity (PLK3 (human)) of 103%. The residual activity (CSNK1G2 (human)) was 98.1%, the residual activity (NEK6 (human)) was 89.9% and the residual activity (VRK1 (human)) was 99.3%. It also gave a residual activity (CDK6 CCND3 (human)) of 118%, a residual activity (MAP3K14 (human)) of 104% and a residual activity (SRPK2 (human)) of 99.5%. It also gave a residual activity (RET (human)) of 76.9%, a residual activity (FRK (human)) of 97.9% and a residual activity (CSNK1A1 (human)) of 98.6%. It also gave a residual activity (CDK5 CDK5R1 p35 (human)) of 103%, a residual activity (FGFR1 (human)) of 96.4% and a residual activity (MAP2K1 (human)) of 107%. For the same molecule, the residual activity (MERTK (human)) was 95.9%, the residual activity (SRMS (human)) was 96.4% and the residual activity (BRSK1 (human)) was 92.5%. The residual activity (CAMK2D (human)) was 92.4%, the residual activity (TEC (human)) was 104% and the residual activity (SRPK1 (human)) was 98.3%. For the same molecule, the residual activity (RAF1 (human)) was 90.9%, the residual activity (DYRK2 (human)) was 98.2% and the residual activity (RPS6KB1 (human)) was 93.9%. It also gave a residual activity (EPHA2 (human)) of 85.7%, a residual activity (BRSK2 (human)) of 103% and a residual activity (DYRK1A (human)) of 101%. For the same molecule, the residual activity (CSF1R (human)) was 110% and the residual activity (TGFBR2 (human)) was 93.8%.
For `C#Cc1cccc(Nc2ncnc3cc(OCCOC)c(OCCOC)cc23)c1`, the residual activity (NEK2 (human)) was 100%, the residual activity (PRKD2 (human)) was 85.9% and the residual activity (CLK1 (human)) was 107%. The residual activity (DYRK3 (human)) was 83.5%, the residual activity (DYRK1B (human)) was 93.7% and the residual activity (EPHB3 (human)) was 58%. For the same molecule, the residual activity (GSG2 (human)) was 80.9%, the residual activity (ACVR1B (human)) was 101% and the residual activity (MAP2K2 (human)) was 105%. The residual activity (CHEK2 (human)) was 100%, the residual activity (RPS6KA6 KD1 KD2 (human)) was 99.1% and the residual activity (PLK3 (human)) was 102%. For the same molecule, the residual activity (CSNK1G2 (human)) was 98.3%, the residual activity (NEK6 (human)) was 89.1% and the residual activity (VRK1 (human)) was 103%. It also gave a residual activity (CDK6 CCND3 (human)) of 117%, a residual activity (SRPK2 (human)) of 101% and a residual activity (RET (human)) of 48.6%. It also gave a residual activity (FRK (human)) of 102%, a residual activity (CSNK1A1 (human)) of 98.6% and a residual activity (CDK5 CDK5R1 p35 (human)) of 108%. The residual activity (FGFR1 (human)) was 99.1%, the residual activity (MAP2K1 (human)) was 105% and the residual activity (MERTK (human)) was 99%. The residual activity (SRMS (human)) was 93.2%, the residual activity (CAMK2D (human)) was 95.1% and the residual activity (TEC (human)) was 96.2%. For the same molecule, the residual activity (RAF1 (human)) was 93.7%, the residual activity (RPS6KB1 (human)) was 95.1% and the residual activity (EPHA2 (human)) was 91.3%. For the same molecule, the residual activity (BRSK2 (human)) was 100% and the residual activity (TGFBR2 (human)) was 91.8%.
Work on `Clc1ccc(Nc2nnc(Cc3ccncc3)c3ccccc23)cc1` yielded a residual activity (FLT3 (human)) of 92%, a residual activity (NEK2 (human)) of 101% and a residual activity (PRKD2 (human)) of 86%. It also gave a residual activity (CLK1 (human)) of 110%, a residual activity (DYRK3 (human)) of 95.9% and a residual activity (DYRK1B (human)) of 109%. It also gave a residual activity (EPHB3 (human)) of 65.1%, a residual activity (RPS6KA4 KD2 (human)) of 98% and a residual activity (HCK (human)) of 89.5%. The residual activity (GSG2 (human)) was 70%, the residual activity (TYRO3 (human)) was 98.2% and the residual activity (ACVR1B (human)) was 108%. It also gave a residual activity (MAP2K2 (human)) of 100%, a residual activity (CHEK2 (human)) of 98.5% and a residual activity (RPS6KA6 KD1 KD2 (human)) of 99.7%. It also gave a residual activity (PLK3 (human)) of 100%, a residual activity (CSNK1G2 (human)) of 98.2% and a residual activity (NEK6 (human)) of 93.3%. It also gave a residual activity (VRK1 (human)) of 109%, a residual activity (CDK6 CCND3 (human)) of 125% and a residual activity (MAP3K14 (human)) of 126%. For the same molecule, the residual activity (SRPK2 (human)) was 96.5%, the residual activity (RET (human)) was 89.1% and the residual activity (FRK (human)) was 95.4%. The residual activity (CSNK1A1 (human)) was 95%, the residual activity (CDK5 CDK5R1 p35 (human)) was 97.2% and the residual activity (FGFR1 (human)) was 97.2%. It also gave a residual activity (MAP2K1 (human)) of 100%, a residual activity (MERTK (human)) of 116% and a residual activity (SRMS (human)) of 91.8%. It also gave a residual activity (BRSK1 (human)) of 93.1%, a residual activity (CAMK2D (human)) of 81.1% and a residual activity (TEC (human)) of 137%. It also gave a residual activity (SRPK1 (human)) of 98.5%, a residual activity (RAF1 (human)) of 93.3% and a residual activity (DYRK2 (human)) of 103%. For the same molecule, the residual activity (RPS6KB1 (human)) was 102%, the residual activity (EPHA2 (human)) was 92.5% and the residual activity (BRSK2 (human)) was 97.1%. For the same molecule, the residual activity (DYRK1A (human)) was 102% and the residual activity (TGFBR2 (human)) was 100%.

— the kinase profiling compilation of Christmann-Franck et al. (2016)
